Patent publication US20240041832A1, “METHODS AND COMPOSITIONS FOR TREATING EYE DISEASES” (JENIVISION INC., priority 2021, published 2024)

Tests used:
[1] = Biodistribution of Beta-Carotene after periorbital skin administration (Example 4); assay type: in vivo, cynomolgus monkeys; settings: for concentration at 3 h / concentration at 0.5 h / concentration at 6 h / concentration at 24 h: cynomolgus monkey, topical; for concentration at 3 h: 507.6 μg/left eye
Procedure: [The procedure below names another target; the source lists this target under the same test.] (§1) This is supported by results obtained with a markedly different compound docosahexaenoic acid (DHA), which are shown in Table 2. An oil solution comprising 14.85 mg/mL β-Carotene+198.02 mg/ml DHA in linoleic acid was administered to one eye (OD) by circumferential topical application to the periorbital skin that surrounds the anterior portion of the globe. Blood samples (1 mL) and were collected at 0, 0.5, 2, 6, and 24 hours after a single administration to the periorbital skin of the right eye (OD) At each of the above pre-designated time points, one animal was euthanized after blood collection and selected eye tissue samples were collected from both eyes. The following representative tissues were collected; upper eyelid, cornea, retina, and vitreous humor. DHA concentrations in the samples were determined by the LC-MS/MS method. The DHA was administered via NIODP at the dose of 6775.1±92.5 μg per eye (mean±SEM), to the left eye of monkeys in the pharmacokinetics and biodistribution study. Again, for convenience of sample processing, only upper eyelids were collected. Substantial quantities of DHA (>10 μg/g) remained in the upper eyelid/periorbital region, retina, and cornea, at all tested time points of 0.5, 3, 6 and 24-hour post dosing. […] Compared to the BLQ baseline, plasma concentrations of DHA were between 1.2 and 3.1 μg/ml, equivalent to […] (MW 328.5) via NIODP. The plasma Cmax was at 0.5 hours post-dose.
Thus, not all compounds are readily uptaken and distributed to the posterior area of the eye.

[2] = Biodistribution of DHA after periorbital skin administration (Example 4); assay type: in vivo, cynomolgus monkeys; settings: for concentration at 0.5 h / concentration at 24 h / concentration at 3 h / concentration at 6 h: cynomolgus monkey, topical; for concentration at 0.5 h: 6567.89 μg/left eye; for concentration at 24 h: 6746.51 μg/left eye; for concentration at 3 h: 6768.26 μg/left eye; for concentration at 6 h: 7017.66 μg/left eye
Procedure: as §1

[3] = 0.5 h, 492.59 μg/left eye periorbital skin
[4] = 3 h, 507.60 μg/left eye periorbital skin
[5] = 6 h, 526.32 μg/left eye periorbital skin
[6] = 24 h, 505.99 μg/left eye periorbital skin
[7] = 0.5 h, 6567.89 μg/left eye periorbital skin
[8] = 3 h, 6768.26 μg/left eye periorbital skin
[9] = 6 h, 7017.66 μg/left eye periorbital skin
[10] = 24 h, 6746.51 μg/left eye periorbital skin

SMILES: CC1=C(/C=C/C(C)=C/C=C/C(C)=C/C=C/C=C(C)/C=C/C=C(C)/C=C/C2=C(C)CCCC2(C)C)C(C)(C)CCC1 [Beta-Carotene, β-Carotene]
- % of administered dose, Left cornea [1, 3]: 0.000%
- % of administered dose, Left retina [1, 3]: 0.000%
- % of administered dose, Left upper eyelid [1, 3]: 0.19%
- % of administered dose, Left vitreous humor [1, 3]: 0.000%
- Drug Concentration in Plasma ([1]; 0.5 h, 492.59 μg/left eye periorbital skin, animal 101): BLQ
- % of administered dose, Left cornea [1, 4]: 0.000%
- % of administered dose, Left retina [1, 4]: 0.000%
- % of administered dose, Left upper eyelid [1, 4]: 0.44%
- % of administered dose, Left vitreous humor [1, 4]: 0.000%
- Drug Concentration in Plasma ([1]; 3 h, 507.60 μg/left eye periorbital skin, animal 102): BLQ
- % of administered dose, Left cornea [1, 5]: 0.000%
- % of administered dose, Left retina [1, 5]: 0.000%
- % of administered dose, Left upper eyelid [1, 5]: 0.000%
- % of administered dose, Left vitreous humor [1, 5]: 0.000%
- Drug Concentration in Plasma ([1]; 6 h, 526.32 μg/left eye periorbital skin, animal 103): BLQ
- % of administered dose, Left cornea [1, 6]: 0.000%
- % of administered dose, Left retina [1, 6]: 0.000%
- % of administered dose, Left upper eyelid [1, 6]: 0.000%
- % of administered dose, Left vitreous humor [1, 6]: 0.000%
- Drug Concentration in Plasma ([1]; 24 h, 505.99 μg/left eye periorbital skin, animal 104): BLQ
- uptake and biodistribution following periorbital administration ([1]; compared with DHA in the same formulation): not as readily uptaken and biodistributed
- concentration at 3 h ([1]; cornea, 3 h, 507.60 μg/left eye periorbital skin, read-out: Drug Concentration in Tissue, Cornea): 0 ng/g
- concentration at 0.5 h ([1]; cornea, 0.5 h, 492.59 μg/left eye periorbital skin, read-out: Drug Concentration in Tissue, Cornea): 0 ng/g
- concentration at 6 h ([1]; cornea, 6 h, 526.32 μg/left eye periorbital skin, read-out: Drug Concentration in Tissue, Cornea): 0 ng/g
- concentration at 24 h ([1]; cornea, 24 h, 505.99 μg/left eye periorbital skin, read-out: Drug Concentration in Tissue, Cornea): 0 ng/g
- concentration at 3 h ([1]; retina, 3 h, 507.60 μg/left eye periorbital skin, read-out: Drug Concentration in Tissue, Retina): 0 ng/g
- concentration at 0.5 h ([1]; retina, 0.5 h, 492.59 μg/left eye periorbital skin, read-out: Drug Concentration in Tissue, Retina): 0 ng/g
- concentration at 6 h ([1]; retina, 6 h, 526.32 μg/left eye periorbital skin, read-out: Drug Concentration in Tissue, Retina): 0 ng/g
- concentration at 24 h ([1]; retina, 24 h, 505.99 μg/left eye periorbital skin, read-out: Drug Concentration in Tissue, Retina): 0 ng/g
- concentration at 3 h ([1]; upper eyelid, 3 h, 507.60 μg/left eye periorbital skin, read-out: Drug Concentration in Tissue, Upper eyelid): 36000 ng/g
- concentration at 0.5 h ([1]; upper eyelid, 0.5 h, 492.59 μg/left eye periorbital skin, read-out: Drug Concentration in Tissue, Upper eyelid): 12600 ng/g
- concentration at 6 h ([1]; upper eyelid, 6 h, 526.32 μg/left eye periorbital skin, read-out: Drug Concentration in Tissue, Upper eyelid): 0 ng/g
- concentration at 24 h ([1]; upper eyelid, 24 h, 505.99 μg/left eye periorbital skin, read-out: Drug Concentration in Tissue, Upper eyelid): 0 ng/g
- concentration at 3 h ([1]; vitreous humor, 3 h, 507.60 μg/left eye periorbital skin, read-out: Drug Concentration in Tissue, Vitreous humor): 0 ng/g
- concentration at 0.5 h ([1]; vitreous humor, 0.5 h, 492.59 μg/left eye periorbital skin, read-out: Drug Concentration in Tissue, Vitreous humor): 0 ng/g
- concentration at 6 h ([1]; vitreous humor, 6 h, 526.32 μg/left eye periorbital skin, read-out: Drug Concentration in Tissue, Vitreous humor): 0 ng/g
- concentration at 24 h ([1]; vitreous humor, 24 h, 505.99 μg/left eye periorbital skin, read-out: Drug Concentration in Tissue, Vitreous humor): 0 ng/g

SMILES: CC/C=C\C/C=C\C/C=C\C/C=C\C/C=C\C/C=C\CCC(=O)O [DHA, docosahexaenoic acid]
- maximum in retina ([2]; 0.5-hour post dosing): 111 µg/g
- % of administered dose, Left cornea [2, 7]: 0.03%
- % of administered dose, Left retina [2, 7]: 0.04%
- % of administered dose, Left upper eyelid [2, 7]: 0.42%
- % of administered dose, Left vitreous humor [2, 7]: 0.00%
- Drug Concentration in Plasma ([2]; 0.5 h, 6567.89 μg/left eye periorbital skin, animal 101): 2160 ng/mL
- % of administered dose, Left cornea [2, 8]: 0.01%
- % of administered dose, Left retina [2, 8]: 0.04%
- % of administered dose, Left upper eyelid [2, 8]: 0.38%
- % of administered dose, Left vitreous humor [2, 8]: 0.00%
- Drug Concentration in Plasma ([2]; 3 h, 6768.26 μg/left eye periorbital skin, animal 102): 3130 ng/mL
- % of administered dose, Left cornea [2, 9]: 0.01%
- % of administered dose, Left retina [2, 9]: 0.01%
- % of administered dose, Left upper eyelid [2, 9]: 0.01%
- % of administered dose, Left vitreous humor [2, 9]: 0.00%
- Drug Concentration in Plasma ([2]; 6 h, 7017.66 μg/left eye periorbital skin, animal 103): 2110 ng/mL
- % of administered dose, Left cornea [2, 10]: 0.02%
- % of administered dose, Left retina [2, 10]: 0.03%
- % of administered dose, Left upper eyelid [2, 10]: 0.02%
- % of administered dose, Left vitreous humor [2, 10]: 0.00%
- Drug Concentration in Plasma ([2]; 24 h, 6746.51 μg/left eye periorbital skin, animal 104): 1150 ng/mL
- DHA in vitreous humor ([2]; LLOQ 0.5 μg/ml): below the limit of quantification (BLQ)
- DHA in upper eyelid/periorbital region, retina and cornea ([2]; all tested time points of 0.5, 3, 6 and 24-hour, NIODP 6775.1±92.5 μg per eye): > 10 µg/g
- concentration at 0.5 h ([2]; left cornea, 0.5 h, 6567.89 μg/left eye periorbital skin, read-out: Drug Concentration in Tissue, Left cornea): 66300 ng/g
- concentration at 24 h ([2]; left cornea, 24 h, 6746.51 μg/left eye periorbital skin, read-out: Drug Concentration in Tissue, Left cornea): 25900 ng/g
- concentration at 3 h ([2]; left cornea, 3 h, 6768.26 μg/left eye periorbital skin, read-out: Drug Concentration in Tissue, Left cornea): 21600 ng/g
- concentration at 6 h ([2]; left cornea, 6 h, 7017.66 μg/left eye periorbital skin, read-out: Drug Concentration in Tissue, Left cornea): 22300 ng/g
- concentration at 0.5 h ([2]; left retina, 0.5 h, 6567.89 μg/left eye periorbital skin, read-out: Drug Concentration in Tissue, Left retina): 111000 ng/g
- concentration at 24 h ([2]; left retina, 24 h, 6746.51 μg/left eye periorbital skin, read-out: Drug Concentration in Tissue, Left retina): 47300 ng/g
- concentration at 3 h ([2]; left retina, 3 h, 6768.26 μg/left eye periorbital skin, read-out: Drug Concentration in Tissue, Left retina): 66700 ng/g
- concentration at 6 h ([2]; left retina, 6 h, 7017.66 μg/left eye periorbital skin, read-out: Drug Concentration in Tissue, Left retina): 78600 ng/g
- concentration at 0.5 h ([2]; left upper eyelid, 0.5 h, 6567.89 μg/left eye periorbital skin, read-out: Drug Concentration in Tissue, Left upper eyelid): 381000 ng/g
- concentration at 24 h ([2]; left upper eyelid, 24 h, 6746.51 μg/left eye periorbital skin, read-out: Drug Concentration in Tissue, Left upper eyelid): 16200 ng/g
- concentration at 3 h ([2]; left upper eyelid, 3 h, 6768.26 μg/left eye periorbital skin, read-out: Drug Concentration in Tissue, Left upper eyelid): 420000 ng/g
- concentration at 6 h ([2]; left upper eyelid, 6 h, 7017.66 μg/left eye periorbital skin, read-out: Drug Concentration in Tissue, Left upper eyelid): 10700 ng/g
- concentration at 0.5 h ([2]; left vitreous humor, 0.5 h, 6567.89 μg/left eye periorbital skin, BLQ given 0, read-out: Drug Concentration in Tissue, Left vitreous humor): 0 ng/g
- concentration at 24 h ([2]; left vitreous humor, 24 h, 6746.51 μg/left eye periorbital skin, BLQ given 0, read-out: Drug Concentration in Tissue, Left vitreous humor): 0 ng/g
- concentration at 3 h ([2]; left vitreous humor, 3 h, 6768.26 μg/left eye periorbital skin, BLQ given 0, read-out: Drug Concentration in Tissue, Left vitreous humor): 0 ng/g
- concentration at 6 h ([2]; left vitreous humor, 6 h, 7017.66 μg/left eye periorbital skin, BLQ given 0, read-out: Drug Concentration in Tissue, Left vitreous humor): 0 ng/g
- concentration at 0.5 h ([2]; plasma, 0.5 h, 6567.89 μg/left eye periorbital skin, animal 101, read-out: Drug Concentration in Plasma): 2200 ng/mL
- concentration at 24 h ([2]; plasma, 24 h, 6746.51 μg/left eye periorbital skin, animal 104, read-out: Drug Concentration in Plasma): 1200 ng/mL
- concentration at 3 h ([2]; plasma, 3 h, 6768.26 μg/left eye periorbital skin, animal 102, read-out: Drug Concentration in Plasma): 3100 ng/mL
- concentration at 6 h ([2]; plasma, 6 h, 7017.66 μg/left eye periorbital skin, animal 103, read-out: Drug Concentration in Plasma): 2100 ng/mL
- dose gradient via NIODP ([2]; periorbital skin): eyelid≈retina>cornea>>vitreous humor=0
